Data from PMC2386736 (Protein Science : A Publication of the Protein Society, 2009).
Like-named read-outs stand apart in the source and are kept apart here.

Columns and labels:
Format in all cases: biochemical
SENP2 [1] = molecular target: T1, SENP2 (Homo sapiens, UniProt Q9HC62)
T1 sequence (Q9HC62 366-589): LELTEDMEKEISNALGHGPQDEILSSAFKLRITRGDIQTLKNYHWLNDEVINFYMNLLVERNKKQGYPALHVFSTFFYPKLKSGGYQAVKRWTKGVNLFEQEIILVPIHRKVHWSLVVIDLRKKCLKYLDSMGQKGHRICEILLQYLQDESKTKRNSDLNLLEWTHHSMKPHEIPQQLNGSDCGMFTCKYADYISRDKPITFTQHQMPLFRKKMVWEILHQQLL

USP7 [2] = molecular target: T2, USP7 (Homo sapiens, UniProt Q93009)
USP2 [3] = molecular target: T3, USP2 (Homo sapiens, UniProt O75604)
USP2 [4] = molecular target: T3, USP2; experiment: Ub-PLA2 / NBD C6-HPC coupled fluorescence isopeptidase assay
SENP2 [5] = molecular target: T1, SENP2; experiment: SUMO3-PLA2 / NBD C6-HPC coupled fluorescence isopeptidase assay
USP7 [6] = molecular target: T2, USP7; experiment: Ub-PLA2 / NBD C6-HPC coupled fluorescence isopeptidase assay

T3 sequence (O75604 259-605): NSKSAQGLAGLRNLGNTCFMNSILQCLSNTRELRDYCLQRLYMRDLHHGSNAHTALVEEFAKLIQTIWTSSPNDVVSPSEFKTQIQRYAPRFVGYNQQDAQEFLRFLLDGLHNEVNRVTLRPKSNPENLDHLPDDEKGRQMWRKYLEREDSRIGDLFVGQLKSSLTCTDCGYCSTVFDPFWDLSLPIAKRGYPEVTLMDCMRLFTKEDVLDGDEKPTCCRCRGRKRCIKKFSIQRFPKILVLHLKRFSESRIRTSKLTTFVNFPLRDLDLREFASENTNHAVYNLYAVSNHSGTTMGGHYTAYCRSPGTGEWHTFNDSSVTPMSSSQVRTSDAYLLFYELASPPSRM
T2 sequence (Q93009 whole entry): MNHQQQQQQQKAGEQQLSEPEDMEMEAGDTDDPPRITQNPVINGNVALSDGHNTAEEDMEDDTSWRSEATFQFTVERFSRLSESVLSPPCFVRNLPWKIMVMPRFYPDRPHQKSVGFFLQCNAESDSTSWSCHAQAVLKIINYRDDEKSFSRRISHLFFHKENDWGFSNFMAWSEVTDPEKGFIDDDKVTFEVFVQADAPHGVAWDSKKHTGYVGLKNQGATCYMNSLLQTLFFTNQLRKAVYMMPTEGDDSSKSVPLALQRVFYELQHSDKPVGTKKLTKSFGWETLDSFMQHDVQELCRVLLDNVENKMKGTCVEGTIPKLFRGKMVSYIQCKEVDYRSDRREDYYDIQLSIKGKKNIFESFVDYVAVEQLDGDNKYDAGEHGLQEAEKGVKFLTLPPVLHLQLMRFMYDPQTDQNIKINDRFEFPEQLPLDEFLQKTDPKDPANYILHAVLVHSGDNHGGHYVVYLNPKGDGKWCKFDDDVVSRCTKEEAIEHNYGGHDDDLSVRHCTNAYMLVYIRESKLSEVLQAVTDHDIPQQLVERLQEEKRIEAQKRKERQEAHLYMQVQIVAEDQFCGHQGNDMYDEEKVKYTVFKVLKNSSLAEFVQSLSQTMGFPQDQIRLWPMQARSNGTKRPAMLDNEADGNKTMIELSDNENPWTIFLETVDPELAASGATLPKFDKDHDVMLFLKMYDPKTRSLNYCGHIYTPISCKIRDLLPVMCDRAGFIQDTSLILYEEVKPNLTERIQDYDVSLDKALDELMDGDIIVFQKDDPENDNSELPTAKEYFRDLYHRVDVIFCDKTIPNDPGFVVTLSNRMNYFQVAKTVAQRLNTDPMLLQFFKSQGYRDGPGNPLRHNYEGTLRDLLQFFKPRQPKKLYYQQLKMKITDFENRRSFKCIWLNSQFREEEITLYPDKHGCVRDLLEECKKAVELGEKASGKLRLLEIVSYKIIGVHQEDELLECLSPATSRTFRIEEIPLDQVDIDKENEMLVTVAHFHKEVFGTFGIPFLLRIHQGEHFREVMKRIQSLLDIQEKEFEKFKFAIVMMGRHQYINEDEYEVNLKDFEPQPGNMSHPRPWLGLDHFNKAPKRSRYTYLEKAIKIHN

| EC50 (SENP2 [1]) | EC50 (USP7 [2]) | EC50 (USP2 [3]) | EC50 (USP2 [4]) | EC50 (SENP2 [5]) | EC50 (USP7 [6]) | SMILES |
| --- | --- | --- | --- | --- | --- | --- |
| 9.8 ± 1.8 µM | 37 ± 1 µM | 45 ± 4 µM |  |  |  | Cc1ccc(/C=C2\CNC/C(=C\c3ccc(C)cc3)C2=O)cc1 [NSC 632839] |
|  |  |  | 1900 ± 200 µM | 1300 ± 200 µM | 1400 ± 70 µM | CCN1C(=O)C=CC1=O [N‐Ethylmaleimide] |
